Test results reported in US20070219180A1, “Muscle Relaxtion Accelerator and Therapeutic Agent for Muscular Tissue Diseases Such as Muscle Relaxation Failure” (priority 2004, published 2007).
Where “and” joins values, the source holds several entries; their conditions need not be identical. Equal entries are not always repeated.

Tests used:
[1] = system: white rabbits; assay: Experiment 8: inhibition of clofilium-induced torsades de pointes; format: in vivo, rabbit
Method: Inhibition of clofilium-induced torsades de pointes by the compound In this experiment, four white rabbits (weight: 2.8-3.2 kg) were used. Each rabbit was intravenously anesthetized with 5 mg/kg methohexital sodium. Injection catheters for the compound and test drug were inserted into the right external jugular veins of the rabbits, and microchip catheters (SPC-320, Millar) for blood pressure measurement were inserted via the right common arteries, under artificial respiration by endotracheal intubation.
The compound solution was prepared by dissolving 100 mg of the compound in 1 ml of dimethylsulfoxide (DMSO), and stored at 4° C.
A 2-lead electrocardiogram and blood pressure of each rabbit were recorded simultaneously on a personal computer via an A/D converter. In this experiment, a sequence of more than 6 polymorphic ventricular tachycardia configurations on the electrocardiogram was defined as torsades de pointes. The number of onsets of torsades de pointes was recorded by electrocardiogram for 30 minutes after administration of clofilium. Methoxamine (an α-stimulant) was used to rapidly induce torsades de pointes. The compound, methoxyamine and clofilium were administered in physiological saline. […]

[2] = system: male Wistar rats; assay: Experiment 12: effect on myocardial microcirculation (microsphere myocardial tissue blood flow rate); format: in vivo, rat
Method: The effects of the compound on myocardial microcirculation were examined. In this experiment, the 1-hydrochloride of the compound, 4-[3-(4-benzylpiperidin-1-yl)propionyl]-7-methoxy-2,3,4,5-tetrahydro-1,4-benzothiazepine 1-hydrochloride (hereinafter called the compound) was used as the 1,4-benzothiazepine derivative or pharmaceutically acceptable salt thereof.
Four 8-week old male Wistar rats weighing 300-310 g were used in the study. The rats were anesthetized with 1,000 mg/kg of urethane and 80 mg/kg of α-chloralose by subperitoneal injection under artificial respiration (Harvard) using endotracheal intubation. In this experiment, 100 mg of the compound was dissolved in 1 ml of dimethylsulfoxide (DMSO) and the resulting DMSO solution of the compound was stored at 4° C. Norepinephrine solution was prepared by dissolving 1 mg of norepinephrine in 41 μl of distilled water, at an infusion speed of 30 μg/kg/min.
Firstly, continuous infusion catheters of calcium chloride solution or norepinephrine solution containing calcium chloride were inserted into the right external jugular veins of the rats, and 2F polyethylene catheters for microspheres were inserted into the left ventricles via the right common arteries. In addition, test drug infusion catheters were inserted into the right femoral veins.
A 1-lead electrocardiogram and the left ventricular pressure were recorded simultaneously on a personal computer via an A/D converter. In the preparation step, blood pressure, pulse, and electrocardiogram of the rats were monitored for 15 minutes and allowed to stabilize, and then 5% dextrose solution containing calcium chloride (at a concentration based on the weight of the rat) was infused into the right external jugular vein for 20 minutes at 16.6 μl/min (12 mg/kg/min of calcium chloride). Next, norepinephrine solution containing calcium chloride without changes in dosage regimen was immediately injected at a rate of 30 μg/kg/min via the right external jugular vein. After the start of administration, calcium chloride and norepinephrine were then continuously injected in the form of a norepinephrine solution containing calcium chloride. With continuous injection of calcium chloride via the right external jugular vein, 5% dextrose solution containing 0.1% DMSO solution was administered via the right femoral vein to Control A rat weighing 310 g (to which the compound was not administered) and to Control B rat weighing 300 g (to which the compound was not administered), 5 minutes before commencement of injection (intravenous injection) of the norepinephrine solution containing calcium chloride. In addition, with continuous injection of calcium chloride via the right external jugular vein, a 5% dextrose solution of the compound was continuously administered to Test 15 rat weighing 300 g and Test 16 rat weighing 300 g for 3 minutes at a rate of 0.33 mg/kg/min and subsequently for 25 minutes at a rate of 0.01 mg/kg/min, 5 minutes before commencement of injection (intravenous injection) of the norepinephrine solution containing calcium chloride via the right external jugular vein. The infusion rate was 0.5 ml/3 minutes for the first 3 minutes and then 0.05 ml/3 minutes.
Myocardial tissue blood flow rate was measured twice using microspheres, 5 minutes before the start of calcium chloride administration and 20 minutes after the start of administration of norepinephrine solution containing calcium chloride. […]

Structure (SMILES): COc1ccc2c(c1)CN(C(=O)CCN1CCC(Cc3ccccc3)CC1)CCS2 [the compound, 4-[3-(4-benzylpiperidine-1-yl)propionyl]-7-methoxy-2,3,4,5-tetrahydro-1,4-benzothiazepine]
- Onset of torsades de pointes (electrocardiogram) ([1]; clofilium 50 μg/kg/min + the compound 0.2 mg/kg/min i.v., monitored 30 minutes): completely prevented
- Incidence of torsades de pointes ([1]; number of onsets in 30 minutes after start of clofilium 50 μg/kg/min under methoxamine 15 μg/kg/min, the compound 0.2 mg/kg/min i.v. for 30 min): 0
- Myocardial tissue blood flow rate ([2]; 5 minutes before the start of CaCl2 administration (baseline), compound later 0.33 mg/kg/min 3 min then 0.01 mg/kg/min 25 min): 4.6 mL/min/g and 4.3 mL/min/g
- Myocardial tissue blood flow rate, ratio to 5 minutes before CaCl2 ([2]; 5 minutes before the start of CaCl2 administration (defined as 100%)): 100%
- Decrease in myocardial tissue blood flow under diastolic dysfunction with administration of the compound ([2]; 20 minutes after the start of norepinephrine containing CaCl2): ≤ 30%
- Myocardial tissue blood flow rate, ratio to 5 minutes before CaCl2 ([2]; 20 minutes after the start of norepinephrine solution containing CaCl2, compound 0.33 mg/kg/min 3 min then 0.01 mg/kg/min 25 min): 70% and 98%
- Myocardial tissue blood flow rate ([2]; 20 minutes after the start of norepinephrine solution containing CaCl2, compound 0.33 mg/kg/min 3 min then 0.01 mg/kg/min 25 min, from 5 min before norepinephrine): 3.2 mL/min/g and 4.2 mL/min/g
